Test results taken from PubChem BioAssay AID2060327 (Molecular Pharmacology Branch, DTP, NCI, 2025).
pIC50: −log10 of the molar value.

Tested on: PC-3 multi-cell spheroids, viability
Assay: Anticancer human tumor PC-3 cell line growth inhibition [IpAb];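 also: spheroids exposed to compounds for 7 days before readout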;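 as to viability, T/C: 100% = DMSO vehicle control wells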
Conditions: for pIC50: curve of first compound; for viability, T/C: stronger effect = lower value
Procedure, shortened: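 Combinations with ipatasertib or abemaciclib were tested on tumour spheroids holding HUVEC (25%) and MSC (15%) alongside 60% malignant cells. Top concentration was at or near clinical Cmax (10 microM if undefined), descending in half-log steps.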

[1] = second compound 0.01 µM, first compound 0.0316 µM
[2] = second compound 0.01 µM, first compound 0.1 µM
[3] = second compound 0.01 µM, first compound 0.316 µM
[4] = second compound 0.01 µM, first compound 1 µM
[5] = second compound 0.01 µM, first compound 3.16 µM
[6] = second compound 0.01 µM, first compound 10 µM
[7] = second compound 0.0316 µM, first compound 0.0316 µM
[8] = second compound 0.0316 µM, first compound 0.1 µM
[9] = second compound 0.0316 µM, first compound 0.316 µM
[10] = second compound 0.0316 µM, first compound 1 µM
[11] = second compound 0.0316 µM, first compound 3.16 µM
[12] = second compound 0.0316 µM, first compound 10 µM
[13] = second compound 0.1 µM, first compound 0.0316 µM
[14] = second compound 0.1 µM, first compound 0.1 µM
[15] = second compound 0.1 µM, first compound 0.316 µM
[16] = second compound 0.1 µM, first compound 1 µM
[17] = second compound 0.1 µM, first compound 3.16 µM
[18] = second compound 0.1 µM, first compound 10 µM
[19] = second compound 0.316 µM, first compound 0.0316 µM
[20] = second compound 0.316 µM, first compound 0.1 µM
[21] = second compound 0.316 µM, first compound 0.316 µM
[22] = second compound 0.316 µM, first compound 1 µM
[23] = second compound 0.316 µM, first compound 3.16 µM
[24] = second compound 0.316 µM, first compound 10 µM
[25] = second compound 1 µM, first compound 0.0316 µM
[26] = second compound 1 µM, first compound 0.1 µM
[27] = second compound 1 µM, first compound 0.316 µM
[28] = second compound 1 µM, first compound 1 µM
[29] = second compound 1 µM, first compound 3.16 µM
[30] = second compound 1 µM, first compound 10 µM

What does the source list for `C=CC(=O)N1CCN(c2nc(=O)n(-c3c(C)ccnc3C(C)C)c3nc(-c4c(O)cccc4F)c(F)cc23)C(C)C1` (stereo not given) + CCN1CCN(Cc2ccc(Nc3ncc(F)c(-c4cc(F)c5nc(C)n(C(C)C)c5c4)n3)nc2)CC1?
pIC50 (second compound 0.01 µM): < 5.00; pIC50 (second compound 0.0316 µM): < 5.00; pIC50 (second compound 0.1 µM): < 5.00; pIC50 (second compound 0.316 µM): < 5.00; pIC50 (second compound 1 µM): 5.28; viability, T/C [1]: 84.3%; viability, T/C [2]: 96%; viability, T/C [3]: 98.6%; viability, T/C [4]: 101%; viability, T/C [5]: 114%; viability, T/C [6]: 116%; viability, T/C [7]: 51.8%; viability, T/C [8]: 57.3%; viability, T/C [9]: 69.8%; viability, T/C [10]: 79.2%; viability, T/C [11]: 107%; viability, T/C [12]: 78.5%; viability, T/C [13]: 58.1%; viability, T/C [14]: 60.2%; viability, T/C [15]: 60.4%; viability, T/C [16]: 54.7%; viability, T/C [17]: 64.2%; viability, T/C [18]: 74.8%; viability, T/C [19]: 65.2%; viability, T/C [20]: 67.8%; viability, T/C [21]: 68.4%; viability, T/C [22]: 70.6%; viability, T/C [23]: 61%; viability, T/C [24]: 48.2%; viability, T/C [25]: 56.3%; viability, T/C [26]: 65.5%; viability, T/C [27]: 60.5%; viability, T/C [28]: 59.1%; viability, T/C [29]: 60.3%; viability, T/C [30]: 37.5%

How did the pIC50 (second compound 0.01 µM) turn out when `Cn1ncc(Cl)c1-c1cc(C(=O)NC(CN)Cc2cccc(F)c2)sc1Cl` (stereo not given) + CCN1CCN(Cc2ccc(Nc3ncc(F)c(-c4cc(F)c5nc(C)n(C(C)C)c5c4)n3)nc2)CC1 was run?
The pIC50 was 6.90.

And the pIC50 (second compound 0.0316 µM)?
The pIC50 was 7.00.

And the pIC50 (second compound 0.1 µM)?
The pIC50 was 7.20.

And the pIC50 (second compound 0.316 µM)?
The pIC50 was 7.28.

And the pIC50 (second compound 1 µM)?
The pIC50 was over 7.50.

What about the viability, T/C [1] of the same compound?
The viability, T/C was 70.5%.

And the viability, T/C [2]?
Its viability, T/C is 55.3%.

What about the viability, T/C [3] of the same compound?
The viability, T/C was 35.8%.

And the viability, T/C [4]?
The viability, T/C was 17.5%.

What about the viability, T/C [5] of the same compound?
The viability, T/C was 15.5%.

And the viability, T/C [6]?
Its viability, T/C is 0.14%.

What about the viability, T/C [7] of the same compound?
The viability, T/C was 57.2%.

And the viability, T/C [8]?
The viability, T/C was 53%.

And the viability, T/C [9]?
The viability, T/C was 26.9%.

What about the viability, T/C [10] of the same compound?
The viability, T/C was 13.8%.

What about the viability, T/C [11] of the same compound?
The viability, T/C was 13.8%.

What about the viability, T/C [12] of the same compound?
The viability, T/C was 0.1%.

What about the viability, T/C [13] of the same compound?
The viability, T/C was 53.2%.

And the viability, T/C [14]?
The viability, T/C was 48.3%.

And the viability, T/C [15]?
The viability, T/C was 17.5%.

What about the viability, T/C [16] of the same compound?
The viability, T/C was 13.3%.

What about the viability, T/C [17] of the same compound?
Its viability, T/C is 9.97%.

What about the viability, T/C [18] of the same compound?
The viability, T/C was 0.1%.

And the viability, T/C [19]?
Its viability, T/C is 56.5%.

What about the viability, T/C [20] of the same compound?
The viability, T/C was 44%.

What about the viability, T/C [21] of the same compound?
Its viability, T/C is 19.4%.

What about the viability, T/C [22] of the same compound?
Its viability, T/C is 13.9%.

What about the viability, T/C [23] of the same compound?
The viability, T/C was 11.6%.

What about the viability, T/C [24] of the same compound?
The viability, T/C was 0.16%.

What about the viability, T/C [25] of the same compound?
The viability, T/C was 46.3%.

And the viability, T/C [26]?
The viability, T/C was 38.9%.

What about the viability, T/C [27] of the same compound?
Its viability, T/C is 28%.

What about the viability, T/C [28] of the same compound?
The viability, T/C was 17.2%.

What about the viability, T/C [29] of the same compound?
Its viability, T/C is 12.1%.

What about the viability, T/C [30] of the same compound?
Its viability, T/C is 0.16%.

With `Cn1ncnc1[C@H]1c2n[nH]c(=O)c3cc(F)cc(c23)N[C@@H]1c1ccc(F)cc1` + CCN1CCN(Cc2ccc(Nc3ncc(F)c(-c4cc(F)c5nc(C)n(C(C)C)c5c4)n3)nc2)CC1 as the compound, how does the pIC50 (second compound 0.01 µM) read?
Its pIC50 is 8.04.

What about the pIC50 (second compound 0.0316 µM) of the same compound?
The pIC50 was 8.65.

What about the pIC50 (second compound 0.1 µM) of the same compound?
The pIC50 was 9.10.

And the pIC50 (second compound 0.316 µM)?
The pIC50 was 7.55.

What about the pIC50 (second compound 1 µM) of the same compound?
Its pIC50 is 8.29.

And the viability, T/C (second compound 0.01 µM, first compound 0.000316 µM)?
The viability, T/C was 82%.

What about the viability, T/C (second compound 0.01 µM, first compound 0.001 µM) of the same compound?
The viability, T/C was 61.4%.

And the viability, T/C (second compound 0.01 µM, first compound 0.00316 µM)?
The viability, T/C was 60.6%.

What about the viability, T/C (second compound 0.01 µM, first compound 0.01 µM) of the same compound?
The viability, T/C was 47.1%.

What about the viability, T/C [1] of the same compound?
Its viability, T/C is 46%.

What about the viability, T/C [2] of the same compound?
Its viability, T/C is 44.3%.

What about the viability, T/C (second compound 0.0316 µM, first compound 0.000316 µM) of the same compound?
Its viability, T/C is 61.5%.

And the viability, T/C (second compound 0.0316 µM, first compound 0.001 µM)?
The viability, T/C was 50.8%.

And the viability, T/C (second compound 0.0316 µM, first compound 0.00316 µM)?
Its viability, T/C is 47.3%.

What about the viability, T/C (second compound 0.0316 µM, first compound 0.01 µM) of the same compound?
Its viability, T/C is 49.3%.

And the viability, T/C [7]?
Its viability, T/C is 48%.

And the viability, T/C [8]?
The viability, T/C was 39%.

And the viability, T/C (second compound 0.1 µM, first compound 0.000316 µM)?
Its viability, T/C is 48.2%.

What about the viability, T/C (second compound 0.1 µM, first compound 0.001 µM) of the same compound?
The viability, T/C was 50.3%.

What about the viability, T/C (second compound 0.1 µM, first compound 0.00316 µM) of the same compound?
The viability, T/C was 52.1%.

What about the viability, T/C (second compound 0.1 µM, first compound 0.01 µM) of the same compound?
The viability, T/C was 48.6%.

And the viability, T/C [13]?
Its viability, T/C is 44%.

What about the viability, T/C [14] of the same compound?
Its viability, T/C is 42.7%.

And the viability, T/C (second compound 0.316 µM, first compound 0.000316 µM)?
Its viability, T/C is 59.6%.

What about the viability, T/C (second compound 0.316 µM, first compound 0.001 µM) of the same compound?
The viability, T/C was 58.2%.

What about the viability, T/C (second compound 0.316 µM, first compound 0.00316 µM) of the same compound?
Its viability, T/C is 64%.

What about the viability, T/C (second compound 0.316 µM, first compound 0.01 µM) of the same compound?
Its viability, T/C is 54.5%.

What about the viability, T/C [19] of the same compound?
Its viability, T/C is 47.6%.

And the viability, T/C [20]?
Its viability, T/C is 37.8%.

What about the viability, T/C (second compound 1 µM, first compound 0.000316 µM) of the same compound?
The viability, T/C was 61%.

What about the viability, T/C (second compound 1 µM, first compound 0.001 µM) of the same compound?
Its viability, T/C is 48.8%.

What about the viability, T/C (second compound 1 µM, first compound 0.00316 µM) of the same compound?
Its viability, T/C is 46.5%.

And the viability, T/C (second compound 1 µM, first compound 0.01 µM)?
The viability, T/C was 49.6%.

And the viability, T/C [25]?
The viability, T/C was 44.6%.

What about the viability, T/C [26] of the same compound?
The viability, T/C was 29.4%.
